The record followed here is publication PMC10057847, “Precision engineering of biological function with large-scale measurements and machine learning” (PLOS ONE, 2023).

What all share (assay): In vivo IPTG dose-response of LacI-regulated eYFP expression from the pVER plasmid in E. coli grown in rich M9 medium at 37 °C, measured by flow cytometry and fitted to the Hill equation by Bayesian MCMC (posterior mean and SD).
Holding throughout (type): cell-based, E. coli MG1655Δlac
What all share (conditions): read-out: log_ec50 (base-10 logarithm of EC50 in μmol/L) (converted)
On the technique in general: In flow cytometry, cells or beads pass a laser one at a time.

One experiment has as its target T1, pVER-IPTG-002(V136E) (Escherichia coli, UniProt P03023, M254I/S158R/T154I/V136E/V238D/V264I/V96E).
T1 construct: gene lacI; LacI expressed from pVER plasmid
Here is the method: (§1) All reported measurements were completed using E. coli strain MG1655Δlac, in which the lactose operon of E. coli strain MG1655 (ATCC #47076) was replaced with the bleomycin resistance gene from Streptoalloteichus hindustanus (Shble).
(§2) Dose-response curves were measured with flow cytometry using E. coli MG1655Δlac transformed with variants of the pVER plasmid, described previously. The plasmid contained different variants of the lacI coding DNA sequence (CDS), as described in the text, and an expression cassette with enhanced yellow fluorescent protein (eYFP) under the control of the lactose operator (lacO). The lacI CDS was verified with Sanger sequencing for each variant.
(§3) All cultures were grown in a rich M9 media (3 g/L KH2PO4, 6.78 g/L Na2HPO4, 0.5 g/L NaCl, 1 g/L NH4Cl, 0.1 mmol/L CaCl2, 2 mmol/L MgSO4, 4% glycerol, and 20 g/L casamino acids) supplemented with 50 μg/mL kanamycin.
(§4) • Prepare first growth plate, with 450 μL rich M9 media in each well. • Pipette 50 μL of starter culture into each well in rows B-G of the plate (leaving rows A and H blank). • Use a E. coli containing a different lacI variant for each row. • Seal first growth plate with gas permeable membrane. • Incubate plate in plate reader for 12 h to 14 h. • Grow to stationary to provide a reproducible starting point for each measurement. • Prepare second growth plate with 490 μL in each well. • Dilution series of isopropyl-β-D-thiogalactopyranoside (IPTG): 11 columns of a 2-fold serial dilution gradient and one column with zero IPTG. • Ten minutes before the end of the incubation cycle for the first growth plate, move the second growth plate to a heated station set to 47°C. • Ten minutes at 47°C will pre-warm the media in the plate to 37°C. • De-seal the first growth plate (after completion of the stationary-phase incubation cycle). • Pipette 10 μL from each well in the first growth plate to the corresponding well in the second growth plate. • 50-fold dilution; using a 96-channel pipetting head. • Seal second growth plate with gas permeable membrane. • Incubate second growth plate in plate reader for 160 minutes. • Sufficient for approximately 10-fold increase in cell density or 3.3 doublings. • Prepare third growth plate with 450 μL in each well. • Same dilution series as in second growth plate. • Ten minutes before the end of the incubation cycle for the second growth plate, move the third growth plate to a heated station set to 47°C. • De-seal the second growth plate (after completion of the 160 minute incubation cycle). • Pipette 50 μL from each well in the second growth plate to the corresponding well in the third growth plate. • 10-fold dilution; using a 96-channel pipetting head. • Seal third growth plate with gas permeable membrane. • Incubate third growth plate in plate reader for 160 minutes. • Prepare flow cytometry sample plate (round-bottom 96-well plate, Falcon, 351177). • Each well in rows B-G: 195 μL 1x PBS with 170 μg/mL chloramphenicol (Fisher BioReagents, cat. #BP904-100). • Rows A and H: PBS blanks, focusing fluid blanks, and space for calibration bead sample • At the end of the incubation cycle for the third growth plate, pipette 5 μL from each well to the corresponding well in the flow cytometry sample plate.
(§5) Flow cytometry samples were measured with an Attune NxT flow cytometer equipped with a 96-well plate autosampler using a 488 nm excitation laser and a 530 nm ± 15 nm bandpass emission filter. Blank samples were measured with each batch of cell measurements, and an automated gating algorithm was used to discriminate cell events from non-cell events. Fluorescence calibration beads (Spherotech, part no. RCP-30-20A) were also measured with each batch of samples to facilitate calibration of flow cytometry data to molecules of equivalent fluorescein (MEF). […]

A further experiment has as its target T2, pVER-IPTG-005 (Escherichia coli, UniProt P03023, A176S/E172D/F226Y/G91D/R101G/S158C/T167M/T276S/T299A/V94A).
T2 construct: gene lacI; LacI expressed from pVER plasmid
Here is the method: as §1, §2, §3, §4, §5

In a further experiment the target is T3, pVER-IPTG-076 (Escherichia coli, UniProt P03023, A337S/L198Q/S102R/S260F/S93N/V99E).
T3 construct: gene lacI; LacI expressed from pVER plasmid
T3 sequence (P03023 whole entry S93N/V99E/S102R/L198Q/S260F/A337S): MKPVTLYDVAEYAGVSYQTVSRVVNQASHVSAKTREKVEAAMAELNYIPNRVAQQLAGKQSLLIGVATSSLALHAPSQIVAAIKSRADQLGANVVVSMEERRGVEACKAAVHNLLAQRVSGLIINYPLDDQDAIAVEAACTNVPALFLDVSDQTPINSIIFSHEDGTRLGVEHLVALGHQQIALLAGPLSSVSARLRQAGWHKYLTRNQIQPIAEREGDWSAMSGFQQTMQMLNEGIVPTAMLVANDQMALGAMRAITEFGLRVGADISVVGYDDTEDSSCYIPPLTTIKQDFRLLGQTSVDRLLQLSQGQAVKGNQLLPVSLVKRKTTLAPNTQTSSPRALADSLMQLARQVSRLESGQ
Here is the method:
as §1, §2, §3, §4, §5

In the next experiment the target is T4, pVER-IPTG-010 (Escherichia coli, UniProt P03023, A72V/I210F/K84N/M254T/T336S).
T4 construct: gene lacI; LacI expressed from pVER plasmid
T4 sequence (P03023 whole entry A72V/K84N/I210F/M254T/T336S): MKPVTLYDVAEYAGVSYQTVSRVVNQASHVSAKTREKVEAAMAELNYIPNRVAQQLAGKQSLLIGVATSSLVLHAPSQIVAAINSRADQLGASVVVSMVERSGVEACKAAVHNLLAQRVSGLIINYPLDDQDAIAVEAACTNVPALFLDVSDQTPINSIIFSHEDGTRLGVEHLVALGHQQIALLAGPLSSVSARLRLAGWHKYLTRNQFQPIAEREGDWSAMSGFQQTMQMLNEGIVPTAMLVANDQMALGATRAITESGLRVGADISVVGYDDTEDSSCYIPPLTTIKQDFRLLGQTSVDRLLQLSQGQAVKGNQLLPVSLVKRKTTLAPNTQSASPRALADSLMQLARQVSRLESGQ
The protocol:
as §1, §2, §3, §4, §5

A further experiment deals with T5, pVER-IPTG-004(V80L) (Escherichia coli, UniProt P03023, A87P/E357G/V301M/V80L).
T5 construct: gene lacI; LacI expressed from pVER plasmid
T5 sequence (P03023 whole entry V80L/A87P/V301M/E357G): as the sequence (P03023 whole entry A72V/K84N/I210F/M254T/T336S) above, with V72A, V80L, N84K, A87P, F210I, T254M, V301M, S336T, E357G counted along it
Here is the method: as §1, §2, §3, §4, §5

A further experiment deals with T6, pVER-IPTG-079 (Escherichia coli, UniProt P03023, A116T/S190C/T141I/V99E).
T6 construct: gene lacI; LacI expressed from pVER plasmid
T6 sequence (P03023 whole entry V99E/A116T/T141I/S190C): as the sequence (P03023 whole entry S93N/V99E/S102R/L198Q/S260F/A337S) above, with N93S, R102S, A116T, T141I, S190C, Q198L, F260S, S337A counted along it
Here is the method:
as §1, §2, §3, §4, §5

The next experiment has as its target T7, pVER-IPTG-006 (Escherichia coli, UniProt P03023, A241V/A341T/D88Y/L305M/L319F/L346S/N246S/P339T).
T7 construct: gene lacI; LacI expressed from pVER plasmid
Here is the method: as §1, §2, §3, §4, §5

The next experiment addresses T8, pVER-IPTG-078 (Escherichia coli, UniProt P03023, A110V/A72V/N142D/S322L).
T8 construct: gene lacI; LacI expressed from pVER plasmid
Here is the method: as §1, §2, §3, §4, §5

For the next experiment, the target named is T9, pVER-IPTG-003 (Escherichia coli, UniProt P03023, A337V/G200V/H74Y/K290R/L262M/Q306H/R207H/V119I/V52M).
T9 construct: gene lacI; LacI expressed from pVER plasmid; stop codon at 352
T9 sequence (P03023 1-351 V52M/H74Y/V119I/G200V/R207H/L262M/K290R/Q306H/A337V): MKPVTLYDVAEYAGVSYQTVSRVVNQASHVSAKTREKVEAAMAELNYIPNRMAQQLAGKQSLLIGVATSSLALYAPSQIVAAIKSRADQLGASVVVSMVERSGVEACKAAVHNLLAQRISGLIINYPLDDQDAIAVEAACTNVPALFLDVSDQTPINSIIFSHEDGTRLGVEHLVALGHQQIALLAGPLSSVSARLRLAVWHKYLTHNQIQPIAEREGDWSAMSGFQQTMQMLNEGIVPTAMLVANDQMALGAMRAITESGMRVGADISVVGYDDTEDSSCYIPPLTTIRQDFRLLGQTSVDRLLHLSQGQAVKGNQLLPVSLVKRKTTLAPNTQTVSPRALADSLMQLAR
The protocol: as §1, §2, §3, §4, §5

For another experiment, the target named is T10, pVER-IPTG-002(V80L) (Escherichia coli, UniProt P03023, M254I/S158R/T154I/V238D/V264I/V80L/V96E).
T10 construct: gene lacI; LacI expressed from pVER plasmid
T10 sequence (P03023 whole entry V80L/V96E/T154I/S158R/V238D/M254I/V264I): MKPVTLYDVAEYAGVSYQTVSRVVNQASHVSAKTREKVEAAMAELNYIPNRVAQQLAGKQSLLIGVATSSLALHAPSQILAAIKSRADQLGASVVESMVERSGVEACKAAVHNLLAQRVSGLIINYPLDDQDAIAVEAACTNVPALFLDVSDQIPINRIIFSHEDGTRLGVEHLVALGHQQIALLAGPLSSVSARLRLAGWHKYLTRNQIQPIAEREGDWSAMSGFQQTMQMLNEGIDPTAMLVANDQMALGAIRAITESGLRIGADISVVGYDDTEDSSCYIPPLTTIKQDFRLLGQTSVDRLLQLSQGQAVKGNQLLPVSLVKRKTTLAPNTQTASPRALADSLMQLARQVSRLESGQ
Here is the method:
as §1, §2, §3, §4, §5

A further experiment deals with T11, pVER-IPTG-007 (Escherichia coli, UniProt P03023, A199V/D88Y/K84E/L342M/L90P/Q153L/R351P/S358R).
T11 construct: gene lacI; LacI expressed from pVER plasmid
T11 sequence (P03023 whole entry K84E/D88Y/L90P/Q153L/A199V/L342M/R351P/S358R): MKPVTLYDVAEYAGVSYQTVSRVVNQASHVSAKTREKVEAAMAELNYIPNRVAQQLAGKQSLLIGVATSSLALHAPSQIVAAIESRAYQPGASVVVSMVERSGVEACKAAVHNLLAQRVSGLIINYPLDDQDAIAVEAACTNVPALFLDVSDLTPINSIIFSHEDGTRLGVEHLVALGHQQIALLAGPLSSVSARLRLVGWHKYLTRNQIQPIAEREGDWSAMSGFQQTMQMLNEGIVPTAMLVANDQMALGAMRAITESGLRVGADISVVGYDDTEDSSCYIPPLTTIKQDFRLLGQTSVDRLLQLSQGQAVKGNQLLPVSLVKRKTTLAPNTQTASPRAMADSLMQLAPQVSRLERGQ
Here is the method: as §1, §2, §3, §4, §5

Another experiment has as its target T12, pVER-IPTG-081 (Escherichia coli, UniProt P03023, M347V/P285S/S308P/V301M).
T12 construct: gene lacI; LacI expressed from pVER plasmid
Here is the method: as §1, §2, §3, §4, §5

T2 sequence (P03023 whole entry G91D/V94A/R101G/S158C/T167M/E172D/A176S/F226Y/T276S/T299A): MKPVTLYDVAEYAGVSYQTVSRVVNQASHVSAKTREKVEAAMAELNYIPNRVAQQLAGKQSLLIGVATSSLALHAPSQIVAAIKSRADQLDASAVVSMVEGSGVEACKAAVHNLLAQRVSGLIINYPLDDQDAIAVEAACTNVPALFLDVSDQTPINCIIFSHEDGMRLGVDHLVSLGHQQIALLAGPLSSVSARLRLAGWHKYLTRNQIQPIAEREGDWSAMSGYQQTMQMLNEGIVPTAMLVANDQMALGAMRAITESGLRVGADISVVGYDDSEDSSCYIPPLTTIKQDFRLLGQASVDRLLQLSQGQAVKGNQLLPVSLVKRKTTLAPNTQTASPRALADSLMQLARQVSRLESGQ
T7 sequence (P03023 whole entry D88Y/A241V/N246S/L305M/L319F/P339T/A341T/L346S): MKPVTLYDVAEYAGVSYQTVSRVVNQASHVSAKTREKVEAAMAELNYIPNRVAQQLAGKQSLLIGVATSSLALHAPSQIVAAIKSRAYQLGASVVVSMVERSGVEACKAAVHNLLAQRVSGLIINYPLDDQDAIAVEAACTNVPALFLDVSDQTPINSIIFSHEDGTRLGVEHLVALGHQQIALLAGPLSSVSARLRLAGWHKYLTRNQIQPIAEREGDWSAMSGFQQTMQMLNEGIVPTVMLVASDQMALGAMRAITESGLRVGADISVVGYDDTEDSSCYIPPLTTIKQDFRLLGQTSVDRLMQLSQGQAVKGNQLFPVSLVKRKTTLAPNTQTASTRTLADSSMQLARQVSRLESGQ
T1 sequence (P03023 whole entry V96E/V136E/T154I/S158R/V238D/M254I/V264I): as the sequence (P03023 whole entry V80L/V96E/T154I/S158R/V238D/M254I/V264I) above, with L80V, V136E counted along it
T12 sequence (P03023 whole entry P285S/V301M/S308P/M347V): as the sequence (P03023 whole entry A72V/K84N/I210F/M254T/T336S) above, with V72A, N84K, F210I, T254M, P285S, V301M, S308P, S336T, M347V counted along it
T8 sequence (P03023 whole entry A72V/A110V/N142D/S322L): as the sequence (P03023 whole entry A72V/K84N/I210F/M254T/T336S) above, with N84K, A110V, N142D, F210I, T254M, S322L, S336T counted along it

For `CC(C)S[C@@H]1O[C@H](CO)[C@H](O)[C@H](O)[C@H]1O` [IPTG, isopropyl-β-D-thiogalactopyranoside], the EC50 at pVER-IPTG-002(V136E) was 464000 µmol/L; at pVER-IPTG-005, 203 µmol/L; on pVER-IPTG-076, 4.31 µmol/L; at pVER-IPTG-010 it was 9.17 µmol/L; on pVER-IPTG-004(V80L), 36.8 µmol/L; at pVER-IPTG-079 it was 7.24 µmol/L. Further, the EC50 on pVER-IPTG-006 is 540 µmol/L; at pVER-IPTG-078, 3.61 µmol/L; at pVER-IPTG-003, 162 µmol/L; on pVER-IPTG-002(V80L), 47.7 µmol/L; on pVER-IPTG-007, 29.4 µmol/L; at pVER-IPTG-081 it was 8.46 µmol/L.
